Each structure is given as a SMILES string.

In data set [1] the test system is bloodstream T. brucei. The data set can be described thus: T. brucei stem-loop RNAi knock-down lines, drug sensitivity. Format: cell-based, Trypanosoma brucei. The conditions noted are these: for EC50: Trypanosoma brucei. As for the experimental part:
f. T. brucei RNAi constructs and cell lines
PCR primers (Table S6) were designed using RNAit28 to generate a 500-bp fragment conferring specific knockdown to Tb927.8.6620 (Table S7) and a 543-bp fragment of Tb927.9.15260 PCR fragments were cloned in the pRPaSLi construct for the generation of stem-loop dsRNA under the control of tetracycline as the trigger for RNAi28,29. Constructs were digested with AscI, EtOH-precipitated, and resuspended ([…]) in sterile water. 2T1 strains, containing a tetracycline repressor, were electroporated using program X-001 of the Nucleofector II electroporator (Amaxa, Cologne, Germany)30 following the addition of 5 µg of linearized DNA mixed in 100 µL of cytomix31. Transformants were cloned by limiting dilution under phleomycin (1 µg/mL) and hygromycin (2.5 µg/mL) selection. Puromycin susceptibility (1 µg/mL) was tested for full integration of the construct and expression of stem-loop RNAi was induced with concentrations of tetracycline ranging from […].
T. brucei RNA was isolated using an RNeasy purification kit (Qiagen) and cDNA-synthesized using a high capacity RNA-to-cDNA kit (Applied Biosystems). PCR primers (Table S6) were designed using the Premierbiosoft's Beacon Designer 6. qRT-PCRs […]
knock-down bloodstream trypanosomes. Transcript levels in trypanosomes where RNAi was induced by the addition of tetracycline (1 µg/mL, 24 h) were compared to wild-type (uninduced) levels. Relative levels of cDNA were normalized using the reference gene TERT (Tb927.11.10190, telomerase reverse transcriptase).
Compound 7, nM Compound 7, nM
Figure S4. Dose-response curves for compound 7 against cell lines where […]
(open circles) and induced (closed circles), respectively. […]
and 8.7 ± 0.3 nM for Tb927.8.6620RNAi uninduced (open circles) and induced (closed circles), respectively. Results are the means standard deviations of data from three […]

Data set [2] can be described thus: 7 day oral repeat-dose rat toxicology and toxicokinetics. The note with it: for tolerability: male rats, oral. The procedure:
b. 7 day rat toxicology studies
A 7 day oral repeat-dose study in male rats was conducted to determine the toxicity […]
Groups of male rats (4/group toxicity; 3/group […]
up to 7 days by oral gavage. […]

The test system of data set [3] is mouse lymphoma cells. The data set can be described thus: Mouse lymphoma assay. As for the experimental part: oxidative metabolism system (S9-mix). […]
The maximum […]
concentrations analysed were 410.45 µg/mL (1 mM, the maximum concentration in accordance with current guidelines and 100 µg/mL (limited by toxicity), for the 3 and […]
The mouse lymphoma screen was carried out using test methodology based on established procedures for in vitro gene mutation testing17,18,19,20. […]

The subject of data set [4] is human proteasome catalytic subunits (THP-1 extracts). The data set can be described thus: Activity-based probe (UbiQ-018) labelling of THP-1 proteasome. In kind it is binding. The conditions noted are these: human THP-1 extracts, 100 µM.
Protocol: Activity-Based Probe Labelling of THP1 and L. donovani proteasome
Proteasome enriched fractions from THP1 (20 µg), L. donovani (10 µg) and L. donovani
µM for 1 h. Proteasome enriched fractions were also incubated with DMSO as control.
For all proteasome labelling experiments, the active-site probe Me4BodipyFL-Ahx3Leu3VS (UbiQ-018) was used at final concentration of 500 nM in sucrose buffer (50 mM Tris buffer pH 7.5, 5 mM magnesium chloride, 1 mM EDTA, 50 mM NaCl, 250 mM sucrose, 2 mM ATP, 1 mM DTT). Proteasome enriched fractions treated with
DMSO or test compounds, were incubated with the probe for 2h at RT. Samples were then denatured by addition of Laemmli sample buffer, heated to 95°C for 10 min and separated by electrophoresis on a 15% SDS-PAGE acrylamide gel. Following separation, gels were scanned in the fluorescein channel of a ChemiDoc reader (λ excitation/emission = 480/530 nm). Fluorescent proteins were excised and MALDI– TOF analysis carried out by the FingerPrints Proteomics service at the University of
Data set [5] relates to WP2 uvrA (pKM101). The data set is described as follows: Ames test, strain WP2 uvrA (pKM101). As for the experimental part: oxidative metabolism system (S9-mix). The maximum concentration tested and […]
Compound 7a was tested in a bacterial mutation screening assay (Ames test) with Salmonella typhimurium TA1535, TA1537, TA98, TA100 and Escherichia coli WP2uvrA(pKM101) in the presence and absence of an exogenous mammalian […]
The bacterial mutation screening assay was a plate incorporation test carried out as previously described15 and according to current methodology. […]
(The Ames test uses bacterial strains that need an amino acid and regain growth without it when mutated back.)

Data set [6] can be described thus: Pharmacokinetics in male Sprague Dawley rats. The conditions noted are these: rat. Format: in vivo. The procedure:
Male Sprague Dawley rats (n=3) were dosed either intravenously at a target dose of 3 mg/kg or orally at a target dose of 10, 30, 100 and 300 mg/kg. Following discrete intravenous tail vein dosing from a solution of 5% DMSO/20% kleptose in saline, serial blood samples (~10 µl) were taken via lateral tail vein at 0.01, 0.05, 0.08, 0.25, 0.5, 1, 2, 4, 6, 8 and 24 h post dose and 1/9 diluted with miliQ water, frozen on dry ice, then stored at approximately –20 °C or below until analysis.
Following discrete oral gavage dosing from a suspension of 1% methyl cellulose at target doses of 10, 30, 100 and 300 mg/kg, respectively, serial blood samples (10 µl) were taken via lateral tail vein at 0.08, 0.25, 0.5, 0.75, 1, 2, 4, 6, 8 and 24 h post dose and 1/9 diluted with miliQ water, frozen on dry ice, then stored at approximately –20°C […]
Samples were analyzed for parent compound using a method based on protein precipitation followed by UPLC-MS/MS.
Pharmacokinetic parameters, namely clearance (CL), volume of distribution at steady state (Vss) and bioavailability (F%), were estimated using Phoenix, WinNonLin 6.3.
Data analysis and calculation of pharmacokinetic parameters was performed using Phoenix, WinNonLin Version 6.3.
Following the intravenous administration, the whole blood clearance was calculated by determining the dose administered to each animal and dividing by the AUC0-∞ . The estimate of the volume of distribution at steady state (VSS) was calculated as MRT*CL, where MRT is the mean residence time, calculated by AUMC0-∞ /AUC0-∞.
For both intravenous and oral administration, the systemic exposures were determined by calculating the area under the blood concentration time curve (AUC) from the start of dosing to the last observed quantifiable concentration (AUC0-t) by using the linear up-log down trapezoidal rule. The slope of the terminal elimination phase was estimated by linear regression of the terminal data points (minimum 3 points) from a natural log concentration versus time plot of the data. The half-life (t1/2) of the terminal elimination phase was calculated as t1/2 = 0.693/λ. […]

Data set [7] deals with Leishmania tarentolae. The data set is described as follows: Potency against L. tarentolae. Format: cell-based. An excerpt:
The potency of 8 against the nonpathogenic Leishmania spp. […] Apo (3.3 Å) and 8-liganded (2.8 Å) (Fig. 5A) L. tarentolae 20S proteasome structures were obtained using single-particle cryo-EM (SI Appendix, Figs. S11–S15 and Table S9).

The mark [8] stands for this setting: male, Sprague Dawley, whole blood, 3 mg/kg iv bolus.

Consider `O=C(Nc1ccc(F)c(-c2cn3nc(-c4ccccc4)cnc3n2)c1)N1CCCC1` [Compound 7], for which the EC50 in data set [1] (Tb927.8.6620 RNAi induced) was 8.7 ± 0.3 nM; in data set [1] (Tb927.8.6620 RNAi uninduced), 4.2 ± 0.2 nM; in data set [1] (Tb927.9.15260 RNAi induced), 8 ± 0.4 nM; in data set [1] (Tb927.9.15260 RNAi uninduced), 4.1 ± 0.2 nM. For the same compound, the “resistance conferred by RNAi knockdown” value in data set [1] (knockdown of Tb927.9.15260 and Tb927.8.6620) is reported as “approximately twofold”.
For the compound `O=C(Nc1ccc(F)c(-c2ccn3c(N4CCOCC4)cnc3n2)c1)N1CCCC1` [Compound 8], the “margin to the predicted human blood AUC0-24” value in data set [2] (300 mg/kg/day) is listed as 37 fold. Also, the tolerability result in data set [2] (1000 mg/kg/day) is “not tolerated”; in data set [2] (100 and 300 mg/kg/day, 7 days), “tolerated over the 7 days”. In addition, the “rat 7-d toxicology study outcome” value in data set [2] (doses up to 300 mg/kg) is listed as “no significant safety or tolerability liabilities were detected”. In addition, the safety margin result in data set [2] (male, rat, in vivo, 300 mg/kg, 7 days) is “at least 37 fold”. Moreover, the “MF (Mutation Frequency)” value in data set [3] (3 hour +S9 treatment, 375 µg/mL) is given as 191.25 ×10-6; in data set [3] (3 hour +S9 treatment, 410.445 µg/mL), 222.38 ×10-6; in data set [3] (24 hour -S9 treatment, 40 µg/mL) it was 75.89 ×10-6; in data set [3] (24 hour -S9 treatment, 70 µg/mL), 78.36 ×10-6; in data set [3] (24 hour -S9 treatment, 100 µg/mL), 86.96 ×10-6. Also, in data set [3] (3 hours with S9-mix and 24 hours without S9-mix), the “mouse lymphoma screen result” value is on record as “negative”. Further, the “UbiQ-018 labelling of proteasome subunits” value in data set [4] is listed as “no effect”. Moreover, the “Mean revertants per plate” value in data set [5] (with S9-mix, dose level 50 per plate) turned out to be 150.5; in data set [5] (with S9-mix, dose level 150 per plate) it was 164.5; in data set [5] (with S9-mix, dose level 500 per plate), 143.5; in data set [5] (with S9-mix, dose level 1500 per plate), 139.0; in data set [5] (with S9-mix, dose level 2500 per plate) it was 130.5; in data set [5] (with S9-mix, dose level 5000 per plate) it was 133.5. Besides, the “Mean revertants per plate” value in data set [5] (without S9-mix, dose level 50 per plate) worked out at 90.0; in data set [5] (without S9-mix, dose level 150 per plate) it was 84.5; in data set [5] (without S9-mix, dose level 500 per plate) it was 80.5; in data set [5] (without S9-mix, dose level 1500 per plate) it was 87.5; in data set [5] (without S9-mix, dose level 2500 per plate), 91.5; in data set [5] (without S9-mix, dose level 5000 per plate), 82.0. Further, in data set [6] (male, Sprague Dawley, whole blood, po, 10 mg/kg, SD male rat, 10 mg/kg po, read-out: F (oral bioavailability)), the bioavailability was determined as 36%. The clearance in data set [6] (setting [8]) was 17 ± 5.2 mL/min/kg. In data set [6] (setting [8]), this compound gave a half-life of 42 ± 8.4 min. In addition, the Vd in data set [6] (male, Sprague Dawley, whole blood, 3 mg/kg iv bolus, read-out: Vss) stood at 1 L/kg. This compound also displayed a blood clearance in data set [6] of 17 mL/min per kilogram. Moreover, the “Cl (%LBF)” value in data set [6] (3 mg/kg iv) is listed as 22%. This compound also returned an EC50 in data set [7] of 40 nM.

By EC50 is commonly meant the concentration that produces a half-maximal response. Read a high EC50 as a less potent agent. In general, bioavailability refers to dose-corrected exposure relative to a reference, in per cent. Broadly, the clearance is the rate of elimination divided by the concentration. A high value points to efficient removal. The term half-life denotes how long it takes for the measured level to halve. High values mean slow loss, low ones fast loss.

Values taken from article PMC6511062, “Preclinical candidate for the treatment of visceral leishmaniasis that acts through proteasome inhibition” (Proceedings of the National Academy of Sciences of the …, 2019).
